According to patent EP4782445A1, “CDK KINASE INHIBITOR AND USE THEREOF” (Abbisko Therapeutics Co., Ltd., priority 2023, dated 2025):

Legend:
[1] = biological target: T1, CDK6/cyclin D3 (Homo sapiens, UniProt Q00534); assay: In vitro biochemical kinase activity assay for CDK6/cyclin D3 (HTRF)
T1 construct: purchased Carna
Protocol: III. In Vitro Biochemical Kinase Activity Assay for CDK6/Cyclin D3
The inhibitory effects of the compounds of the present invention on CDK6/cyclin D3 kinase activity were determined using an HTRF assay. The experimental process was as follows: 1. The kinase reaction was carried out in a 384-well plate. 0.02 nM CDK6/cyclin D3 (Carna), 1 mM (or 100 µM) ATP, and 0.3 µM biotin-labeled substrate protein Rb-biotin (Cisbio) were incubated at 30°C for 60 min in a buffer system composed of 5 mM MgCl2, 1 mM DTT, and basal kinase buffer (Cisbio). 2. The detection solution (Cisbio, containing reagents that specifically recognize phosphorylated Rb and Rb-biotin proteins, respectively) was added. The plate was then sealed with a film (to protect from light and volatilization) and incubated at 25°C for 60 min. 3. The plate was transferred to an Envision plate reader to detect FRET signals. (The 665/615 ratio was calculated by reading the emission at 665 nm and 615 nM, respectively.) 4. The IC50 values were determined by analyzing the inhibition at varying compound concentrations using Model 205 in the XLfit software.

[2] = biological target: T2, CDK4/cyclin D3 (Homo sapiens, UniProt P11802); assay: In vitro biochemical kinase activity assay for CDK4/cyclin D3 (HTRF)
T2 construct: purchased Carna
T2 sequence (P11802 whole entry): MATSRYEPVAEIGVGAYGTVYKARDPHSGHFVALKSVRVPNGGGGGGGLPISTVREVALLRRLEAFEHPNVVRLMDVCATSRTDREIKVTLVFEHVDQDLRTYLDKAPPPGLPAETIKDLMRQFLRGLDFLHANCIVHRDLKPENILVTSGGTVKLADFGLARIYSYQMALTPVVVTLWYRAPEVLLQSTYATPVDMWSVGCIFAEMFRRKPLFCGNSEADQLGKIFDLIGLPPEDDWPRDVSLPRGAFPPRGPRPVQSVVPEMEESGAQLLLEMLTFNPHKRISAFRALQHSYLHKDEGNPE
T2 sequence (P30281 whole entry partner): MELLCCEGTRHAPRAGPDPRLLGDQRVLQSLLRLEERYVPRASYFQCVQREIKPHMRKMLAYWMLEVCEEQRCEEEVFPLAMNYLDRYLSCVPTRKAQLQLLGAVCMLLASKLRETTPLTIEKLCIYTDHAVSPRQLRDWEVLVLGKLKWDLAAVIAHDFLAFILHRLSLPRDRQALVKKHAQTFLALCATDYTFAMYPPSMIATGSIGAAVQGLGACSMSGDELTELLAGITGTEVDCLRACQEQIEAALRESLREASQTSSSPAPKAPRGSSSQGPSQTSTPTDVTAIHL
Protocol: II. In Vitro Biochemical Kinase Activity Assay for CDK4/Cyclin D3
The inhibitory effects of the compounds of the present invention on CDK4/cyclin D3 kinase activity were determined using an HTRF assay. The experimental process was as follows: • 1. The kinase reaction was carried out in a 384-well plate. 4.9 nM CDK4/cyclin D3 (Carna), 1 mM (or 80 µM) ATP, and 0.3 µM biotin-labeled substrate protein Rb-biotin (Cisbio) were incubated at 30°C for 90 min in a buffer system composed of 50 mM MgCl2, 1 mM DTT, and basal kinase buffer (Cisbio). • 2. The detection solution (Cisbio, containing reagents that specifically recognize phosphorylated Rb and Rb-biotin proteins, respectively) was added. The plate was then sealed with a film (to protect from light and volatilization) and incubated at 25°C for 60 min. • 3. The plate was transferred to an Envision plate reader to detect FRET signals. (The 665/615 ratio was calculated by reading the emission at 665 nm and 615 nM, respectively.) • 4. The IC50 values were determined by analyzing the inhibition at varying compound concentrations using Model 205 in the XLfit software.

[3] = data marked with *: 1 mM ATP in Step 1
[4] = unmarked data: 100 µM ATP in Step 1
[5] = unmarked data: 80 µM ATP in Step 1

T1 sequence (Q00534 whole entry): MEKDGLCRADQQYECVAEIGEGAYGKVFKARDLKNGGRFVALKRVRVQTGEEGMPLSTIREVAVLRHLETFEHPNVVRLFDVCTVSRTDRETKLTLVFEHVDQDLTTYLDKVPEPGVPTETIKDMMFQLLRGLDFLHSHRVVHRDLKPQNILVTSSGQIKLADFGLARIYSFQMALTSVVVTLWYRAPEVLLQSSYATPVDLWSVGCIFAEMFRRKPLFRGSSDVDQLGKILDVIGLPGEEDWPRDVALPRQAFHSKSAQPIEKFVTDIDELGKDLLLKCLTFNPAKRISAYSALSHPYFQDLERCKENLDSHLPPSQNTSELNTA
T1 sequence (P30281 whole entry partner): as the sequence (P30281 whole entry partner) above

Question: Which results are given for `CC(C)n1c(C#Cc2nc(N[C@@H]3CCOC[C@H]3O)ncc2Cl)cnc1CC1(N)CCCC1` [Example 131, (3S,4R)-4-((4-((2-((1-aminocyclopentyl)methyl)-1-isopropyl-1H-imidazol-5-yl)ethynyl)-5-chloropyrimidin-2-yl)amino)tetrahydro-2H-pyran-3-ol]?
Answer: IC50 [1, 3]: 0.684 µM; IC50 [2, 3]: 0.0232 µM

Question: What does the source list for `CC(C)c1c(C#Cc2nc(Nc3ccc(N4CC5(CN(C)C5)C4)cn3)ncc2F)cnn1C` [Example 93, 5-fluoro-4-((5-isopropyl-1-methyl-1H-pyrazol-4-yl)ethynyl)-N-(5-(6-methyl-2,6-diazaspiro[3 .3]heptan-2-yl)pyridin-2-yl)pyrimidin-2-amine]?
Answer: IC50 [1, 3]: 0.0337 µM; IC50 [2, 3]: 0.00728 µM

Question: `CC(C)n1c(C#Cc2nc(N[C@@H]3CCN(S(C)(=O)=O)C[C@H]3O)ncc2Cl)cnc1CN1CCC[C@H](O)C1` [Example 129, (3R,4R)-4-((5-chloro-4-((2-(((S)-3-hydroxypiperidin-1-yl)methyl)-1-isopropyl-1H-imidazol-5-yl)ethynyl)pyrimidin-2-yl)amino)-1-(methanesulfonyl)piperidin-3-ol] was tested. Which IC50 [1, 3] did it give?
Answer: The IC50 was 0.021 µM.

Question: And the IC50 [2, 3]?
Answer: The IC50 was 0.00148 µM.

Question: How did the IC50 [1, 3] turn out when `CC(C)n1c(C#Cc2nc(N[C@@H]3CCOC[C@H]3O)ncc2Cl)cnc1CN1CCC[C@H](O)C1` [Example 75, (S)-1-((5-((5-chloro-2-(((3 S,4R)-3-hydroxytetrahydro-2H-pyran-4-yl)amino)pyrimidin-4-yl)ethynyl)-1-isopropyl-1H-imidazol-2-yl)methyl)piperidin-3-ol] was run?
Answer: The IC50 was 1.16 µM.

Question: And the IC50 [2, 3]?
Answer: The IC50 was 0.0212 µM.

Question: Which IC50 [1, 3] does the source give for `CC(C)n1c(C#Cc2nc(N[C@@H]3CCOC[C@H]3F)ncc2Cl)cnc1C(C)(C)O` [Example 91, 2-(5-((5-chloro-2-(((3 S,4R)-3-fluorotetrahydro-2H-pyran-4-yl)amino)pyrimidin-4-yl)ethynyl)-1-isopropyl-1H-imidazol-2-yl)propan-2-ol] here?
Answer: Its IC50 is 0.333 µM.

Question: What about the IC50 [2, 3] of the same compound?
Answer: Its IC50 is 0.0882 µM.

Question: Which results are given for `CC(C)n1c(C#Cc2nc(N[C@@H]3CCOC[C@H]3O)ncc2Br)cnc1C(C)(C)O` [Example 88, (3S,4R)-4-((5-bromo-4-((2-(2-hydroxypropan-2-yl)-1-isopropyl-1H-imidazol-5-yl)ethynyl)pyrimidin-2-yl)amino)tetrahydro-2H-pyran-3-ol]?
Answer: IC50 [1, 4]: 0.0511 µM; IC50 [2, 3]: 0.0126 µM

Question: Which IC50 [1, 3] does the source give for `CC(C)n1c(C#Cc2nc(N[C@@H]3CCOC[C@H]3O)ncc2Cl)cnc1C1CCO1` (stereo partly drawn) [Example 112, (3S,4R)-4-((5-chloro-4-((1-isopropyl-2-(oxetan-2-yl)-1H-imidazol-5-yl)ethynyl)pyrimidin-2-yl)amino)tetrahydro-2H-pyran-3-ol] here?
Answer: Its IC50 is 1.24 µM.

Question: What about the IC50 [2, 3] of the same compound?
Answer: The IC50 was 0.179 µM.

Question: For `CC(C)n1c(C#Cc2nc(N[C@@H]3CCOC[C@H]3C)ncc2Cl)cnc1C(C)(C)O` [Example 86, 2-(5-((5-chloro-2-(((3 S,4R)-3-methyltetrahydro-2H-pyran-4-yl)amino)pyrimidin-4-yl)ethynyl)-1-isopropyl-1H-imidazol-2-yl)propan-2-ol], which IC50 [1, 4] is on record?
Answer: The IC50 was 1.97 µM.

Question: And the IC50 [2, 5]?
Answer: Its IC50 is 0.48 µM.

Question: Which IC50 [2, 3] does the source give for `CC(C)n1c(C#Cc2nc(N[C@@H]3CCC[C@@H](C(=O)N(C)C)C3)ncc2Cl)cnc1C(C)(C)O` [Example 96, (1R,3R)-3-((5-chloro-4-((2-(2-hydroxypropan-2-yl)-1-isopropyl-1H-imidazol-5-yl)ethynyl)pyrimidin-2-yl)amino)-N,N-dimethylcyclohexane-1-carboxamide] here?
Answer: The IC50 was 3.29 µM.

Question: How did the IC50 [1, 3] turn out when `CC1(C)OCCn2ncc(C#Cc3nc(N[C@@H]4CCOC[C@H]4O)ncc3Cl)c21` [Example 111, (3 S,4R)-4-((5-chloro-4-((4,4-dimethyl-6,7-dihydro-4H-pyrazolo[5,1-c][1,4]oxazin-3-yl)ethynyl)pyrimidin-2-yl)amino)tetrahydro-2H-pyran-3-ol] was run?
Answer: The IC50 was 0.335 µM.

Question: And the IC50 [2, 3]?
Answer: The IC50 was 0.0471 µM.

Question: For `CC(C)n1c(C#Cc2nc(N[C@@H]3CCOC[C@H]3O)ncc2Cl)cnc1C1(O)CCCC1` [Example 90, (3 S,4R)-4-((5-chloro-4-((2-(1-hydroxycyclopentyl)-1-isopropyl-1H-imidazol-5-yl)ethynyl)pyrimidin-2-yl)amino)tetrahydro-2H-pyran-3-ol], which IC50 [1, 3] is on record?
Answer: The IC50 was 0.253 µM.

Question: And the IC50 [2, 3]?
Answer: The IC50 was 0.023 µM.

Question: How did the IC50 [1, 3] turn out when `CC(C)n1c(C#Cc2nc(N[C@@H]3CCOC[C@H]3O)ncc2Cl)cnc1CN1CCC[C@H](C#N)C1` [Example 103, (S)-1-((5-((5-chloro-2-(((3 S,4R)-3-hydroxytetrahydro-2H-pyran-4-yl)amino)pyrimidin-4-yl)ethynyl)-1-isopropyl-1H-imidazol-2-yl)methyl)piperidin-3-carbonitrile] was run?
Answer: Its IC50 is 0.256 µM.

Question: What about the IC50 [2, 3] of the same compound?
Answer: The IC50 was 0.0119 µM.

Question: With `CC(C)c1c(C#Cc2nc(Nc3ccc(C4CCN(C)CC4)cn3)ncc2F)cnn1C` [Example 59, 5-fluoro-4-((5-isopropyl-1-methyl-1H-pyrazol-4-yl)ethynyl)-N-(5-(1-methylpiperidin-4-yl)pyridin-2-yl)pyrimidin-2-amine] as the compound, how does the IC50 [1, 4] read?
Answer: Its IC50 is 0.0383 µM.

Question: What about the IC50 [2, 5] of the same compound?
Answer: Its IC50 is 0.00964 µM.

Question: `CCN1CC2(C1)CN(c1ccc(Nc3ncc(F)c(C#Cc4cnn(C)c4C(C)(C)O)n3)nc1)C2` [Example 83, 2-(4-((2-((5-(6-ethyl-2,6-diazaspiro[3.3]heptan-2-yl)pyridin-2-yl)amino)-5-fluoropyrimidin-4-yl)ethynyl)-1-methyl-1H-pyrazol-5-yl)propan-2-ol] was tested. Which IC50 [2, 3] did it give?
Answer: The IC50 was 2.86 µM.

Question: Which IC50 [1, 3] does the source give for `CC(C)n1c(C#Cc2nc(N[C@@H]3CCOC[C@H]3O)ncc2Cl)cnc1CN1CC(C)(O)C1` [Example 38, 1-((5-((5-chloro-2-(((3 S,4R)-3-hydroxytetrahydro-2H-pyran-4-yl)amino)pyrimidin-4-yl)ethynyl)-1-isopropyl-1H-imidazol-2-yl)methyl)-3-methylazetidin-3-ol] here?
Answer: Its IC50 is 2.12 µM.

Question: And the IC50 [2, 3]?
Answer: Its IC50 is 0.172 µM.

Question: For `CCN1CC2(C1)CN(c1ccc(Nc3ncc(Cl)c(C#Cc4cnc(CN5[C@@H](C)COC[C@@H]5C)n4C(C)C)n3)nc1)C2` [Example 104, 5-chloro-4-((2-(((3 S,5 S)-3,5-dimethylmorpholino)methyl)-1-isopropyl-1H-imidazol-5-yl)ethynyl)-N-(5-(6-ethyl-2,6-diazaspiro[3.3]heptan-2-yl)pyridin-2-yl)pyrimidin-2-amine], which IC50 [1, 3] is on record?
Answer: Its IC50 is 0.0452 µM.

Question: And the IC50 [2, 3]?
Answer: The IC50 was 0.00557 µM.

Question: Which results are given for `CC(C)n1c(C#Cc2nc(N[C@@H]3CCOC[C@H]3O)ncc2Cl)cnc1CN1CCC[C@@H](O)C1` [Example 78, (R)-1-((5-((5-chloro-2-(((3 S,4R)-3-hydroxytetrahydro-2H-pyran-4-yl)amino)pyrimidin-4-yl)ethynyl)-1-isopropyl-1H-imidazol-2-yl)methyl)piperidin-3-ol]?
Answer: IC50 [1, 3]: 0.393 µM; IC50 [2, 3]: 0.0755 µM

Question: How did the IC50 [1, 3] turn out when `CC(C)n1c(C#Cc2nc(N[C@@H]3CCOC[C@H]3O)ncc2F)cnc1C(C)(C)O` [Example 95, (3 S,4R)-4-((5-fluoro-4-((2-(2-hydroxypropan-2-yl)-1-isopropyl-1H-imidazol-5-yl)ethynyl)pyrimidin-2-yl)amino)tetrahydro-2H-pyran-3-ol] was run?
Answer: Its IC50 is 0.829 µM.

Question: What about the IC50 [2, 3] of the same compound?
Answer: Its IC50 is 0.117 µM.

Question: How did the IC50 [2, 3] turn out when `CC(C)n1c(C#Cc2nc(N[C@@H]3CCOC[C@H]3O)ncc2F)cnc1CN1CCC[C@H](O)C1` [Example 102, (S)-1-((5-((5-fluoro-2-(((3 S,4R)-3-hydroxytetrahydro-2H-pyran-4-yl)amino)pyrimidin-4-yl)ethynyl)-1-isopropyl-1H-imidazol-2-yl)methyl)piperidin-3-ol] was run?
Answer: The IC50 was 1.04 µM.
